According to US9145381B2, “Derivative of [(3-hydroxy-4-pyron-2-yl)-methyl]-amine and use thereof as anti-neoplastic drugs” (Universita' Degli Studi Di Urbino, priority 2008, dated 2015):

What was measured:
Type in all cases: cell-based
tumour cell lines = assay: Cell cycle and apoptosis, propidium iodide cytofluorimetric analysis; conditions: 72 hour treatment; for interruption of the cell cycle: tested tumour cell lines in general, different concentrations
Experimental: (§1) FIG. 5: Apoptosis induced by L1 after treatment for 72 hours at a concentration of 50 μM. FIGS. 6-13: Effects of L1 on the percentages of the different phases of the cell cycle after a 72 hour treatment at different concentrations. FIG. 14: Apoptosis induced by L9 after a 72 hour treatment at a concentration of 5 μM. FIGS. 15-22: Effects of L9 on the percentages of the different phases of the cell cycle after a 72 hour treatment at different concentrations.
(§2) The effects of L1 and L9 on the progression of the cell cycle and on its hypothetical ability to induce the apoptotic process were evaluated by cytofluorimetric analysis by means of propidium iodide staining of all of the previously tested cell lines. Cell treated with different concentrations of the two compounds, as previously disclosed, have been harvested and washed with cold phosphate buffer (1×PBS). The cells were resuspended in cold 70% ethanol and fixed at +4° C. for 24 hours. All of the samples were then centrifuged at 1300 rpm at +4° C. for 3 minutes and then resuspended in a solution containing propidium iodide (1×PBS; 0.1% Triton X-100, 0.1% sodium citrate, 250 μg/ml RNasi A, 50 μg/ml propidium iodide) and, after 24 hours of incubation at +4° C., a minimum of 1×10^4 events were acquired at the BD FACScan cytofluorimeter (BD Biosciences, San Jose, Calif., USA). The acquisitions were analysed by a FlowJo 5.7.2 software (Tree Star, Inc., Ashland, Oreg., USA) in order to determine the percentage of cells in different phases of the cell cycle and displaying hypoploid conditions (Apoptotic cells). The induction of programmed cell death was computed as the difference between the percentage of hypodiploid cells in treated and non-treated samples.

JURKAT cells = assay: Cell cycle, propidium iodide cytofluorimetric analysis; conditions: 72 hour treatment
Experimental: as §1, §2

HL-60 cells = assay: as above; conditions: HL-60 (printed H1-60 / JL-60), 72 hour treatment
Experimental: as §1, §2

RH-4 cells = assay: as above; conditions: RH-4, 72 hour treatment
Experimental: as §1, §2

HeLa cells = assay: as above; conditions: 72 hour treatment
Experimental: as §1, §2

U937 cells = assay: Fragmentation of genomic DNA, agarose gel electrophoresis; conditions: U937, 72 hours; L1 25, 50, 100 μM; L9 2.5, 5, 10 μM
Experimental: The cells were treated for 72 hours with L1 and L9 at the concentrations shown in the Figure, the genomic DNA was then extracted, separated on a 2% agarose gel and stained with ethidium bromide.
The induction of apoptosis by compounds L1 and L9 has further been confirmed with the analysis of the fragmentation of the genomic DNA carried out by electrophoresis on an agarose gel. U937 cells treated with L1 (non-treated as a control) at concentrations of 25, 50, 100 μM and L9 at concentrations of 2.5, 5, 10 μM for 72 hours were harvested (about 2×10^6 cells), washed with cold 1×PBS and incubated in 2 ml of 1×TBS, 0.5% Tween20, 1 mM EDTA for 30 minutes at +4° C. After being centrifuged at 1200 rpm, for 5 minutes at +4° C., the cells were incubated in 0.5 ml of a solution at 0.1% SDS for 30 minutes at room temperature. The genomic DNA was then extracted by using a QIAquick Gel Extraction Kit (Qiagen, Hilden, Germany), electrophoretically separated by means of a 2% agarose gel and stained with ethidium bromide.

[1] = test system: cell lines deriving from solid tumours (U-373MG, HeLa, H-28, RH-4); assay: Antiproliferative activity, Trypan blue viability; conditions: cells deriving from solid tumours, 72 hours
Experimental: (§3) FIGS. 3 and 4 show a diagram with the inhibiting concentrations (IC50) of L1 (FIG. 3) and L9 (FIG. 4) in different tumour cell lines. Cells in an exponential growth phase were treated for 72 hours with L1 and L9 and then harvested and stained with Trypan blue in order to determine viability. The values of IC50 have been computed for each compound as the concentration that can determine a 50% reduction in viable cells with respect to a non-treated control.
(§4) In order to evaluate the ability of these compounds to inhibit the proliferation of tumour cells in vitro, eight cell lines were selected, four deriving from haematopoietic tumours and four deriving from solid tumours. The tested hematopoietic lines comprise three myeloid tumour cell lines (U937—acute monocytic leukaemia, NB4—acute promyelocytic leukaemia, HL-60—acute myeloid leukaemia) and a lymphoid tumour cell line (JURKAT—T cell leukaemia), while cell lines deriving from multiform glioblastoma (U-373MG), from uterine cervix cancer (HeLa), from malignant pleural mesothelioma (H-28) and from rhabdomyosarcoma (RH-4) have been used as lines representative of solid tumours. Each cell line has been grown in the appropriate growth medium at 37° C. (RPMI 1640 for the hematopoietic lines and DMEM for the adhering cells deriving from solid tumours—Cambrex, Walkersville, Md., USA) added with 10% FBS, 1% glutamine, 100 IU/ml penicillin, 100 μg/ml streptomycin in a highly humidified atmosphere at 5% CO2. The hematopoietic populations were diluted with preheated growth medium at 37° C. at a concentration of 1×10^5 cells/ml and aliquots of 2 ml were aliquoted in each single well of 6-well plates. The adhering cells were trypsinized, diluted with preheated growth medium at 37° C. and 0.5×10^5 cells were aliquoted in each single well of 6-well plates. The cells in an exponential growth phase were treated with different concentrations of L1 or L9. Both compounds were diluted in distilled water and the treatments were repeated every 24 hours. 72 hours after starting the treatments, cell viability was evaluated by means of Trypan blue staining and the inhibiting concentration (IC50) was computed for each cell line as the concentration allowing to reduce by 50% the number of viable cells, with respect to a non-treated control.

[2] = test system: RH-4 cells (rhabdomyosarcoma); assay: Antiproliferative activity, Trypan blue viability; conditions: 72 hours, treatments repeated every 24 hours, minimum over the lines
Experimental: as §3, §4

[3] = test system: hematopoietic cells (U937, NB4, HL-60, JURKAT); assay: Antiproliferative activity, Trypan blue viability; conditions: 72 hours
Experimental: as §3, §4

[4] = test system: HeLa cells (uterine cervix cancer); assay: Antiproliferative activity, Trypan blue viability; conditions: 72 hours, treatments repeated every 24 hours, maximum over the lines
Experimental: as §3, §4

[5] = test system: all tested tumour cell lines (U937, NB4, HL-60, JURKAT, U-373MG, HeLa, H-28, RH-4); assay: Antiproliferative activity, Trypan blue viability; conditions: range over the tested cell lines, 72 hours, read-out: IC50 values in the different tested cell lines
Experimental: In order to evaluate the ability of these compounds to inhibit the proliferation of tumour cells in vitro, eight cell lines were selected, four deriving from haematopoietic tumours and four deriving from solid tumours. […] Each cell line has been grown in the appropriate growth medium at 37° C. […] The hematopoietic populations were diluted with preheated growth medium at 37° C. at a concentration of 1×10^5 cells/ml and aliquots of 2 ml were aliquoted in each single well of 6-well plates. The adhering cells were trypsinized, diluted with preheated growth medium at 37° C. and 0.5×10^5 cells were aliquoted in each single well of 6-well plates. […] Both compounds were diluted in distilled water and the treatments were repeated every 24 hours.

H-28 cells = assay: Cell cycle, propidium iodide cytofluorimetric analysis; conditions: H-28, 72 hour treatment
Experimental: as §1, §2

Compound	interruption of the cell cycle (tumour cell lines)	induction of apoptosis (hypodiploid cells) (tumour cell lines; tumour cells, propidium iodide)	block of the cell cycle (JURKAT cells)	block of the cell cycle (HL-60 cells)	block of the cell cycle (RH-4 cells)	block of the cell cycle (HeLa cells)	fragmentation of genomic DNA (U937 cells)	IC50 [1] [µM]	IC50 [2] [µM]	IC50 [3] [µM]	IC50 [4] [µM]	IC50 [5] [µM]	block of the cell cycle (H-28 cells)
CN(CCN(C)Cc1occc(=O)c1O)Cc1occc(=O)c1O [Compound L1, N,N′-bis[(3-hydroxy-4-pyron-2-yl)methyl]-N,N′-dimethylethylendiamine]	interrupt the cell cycle of tumour cells in phase S and G2 in a concentration-dependent manner	induce apoptosis	severe block in G2	mainly blocked in phase S	severe block in G2	mainly blocked in phase S	concentration-dependent internucleosomic fragmentation	22	4.49	10.4	30.5		
CN1CCN(Cc2occc(=O)c2O)CCN(C)CCN(Cc2occc(=O)c2O)CC1 [Compound L9, 4(N),10(N)-bis[(3-hydroxy-4-pyron-2-yl)methyl]-1,7-dimethyl-1,4,7,10-tetraazacyclododecane]	mainly blocked in phase G2		stop especially in phase S	moderate block in phase G1		stop especially in phase S	concentration-dependent internucleosomic fragmentation					1.45 to 2.31	moderate block in phase G1
